{"source": "patent US4459304A", "about": "“Combating pests with 2-anilino-3,5-dinitro-benzotrifluorides” (Bayer Aktiengesellschaft, priority 1977, dated 1984)", "type_in_all_cases": "in vivo", "key": {"Laphygma exempta (eggs)": {"tested_on": "Laphygma exempta (eggs)", "test": "Development-inhibiting action, Laphygma exempta (eggs)", "conditions": "concentration 10 ppm, up to larvae of third stage", "source_text": "(§1) Examples 8 and 9, which are given below, show the arthropod development-inhibiting action of the compounds according to the invention without implying a limitation in respect of the breadth of action of these compounds. In the experiments, the morphological changes, such as half-pupated insects, incompletely slipped larvae or caterpillars, defective wings, pupal cuticula in the case of imagos and the like are rated as malformations over the entire stated development of the test insects. The sum of the morphological malformations, together with the insects killed during the sloughing or the metamorphosis, is given in percent of the test insects.\nTest insect: Laphygma exempta (eggs)\nSolvent: 10 parts by weight of acetone\n(§2) Emulsifier: 1 part by weight of alkylaryl polyglycol ether\nTo produce a suitable preparation of active compound, 2 parts by weight of active compound were mixed with the stated amount of solvent, emulsifier and sufficient water to produce a 1% strength mixture, which was diluted with water to the desired concentration.\nDeposited eggs, at the rate of 30 eggs on a filter-paper, were moistened with 1 ml of active compound solution of the stated concentration in ppm (parts per million) and were observed, in plastic boxes, until the young larvae slipped. The young larvae were fed with corn leaves which had been sprayed with the stated concentration of active compound solution on the same day as the eggs.\nThe development of the test insects was observed up to the larvae of the third stage.\nAs a control, deposited eggs were treated in the same manner with solvent and emulsifier of the corresponding concentration, and feeding was carried out with corn leaves."}, "[1]": {"tested_on": "two-spotted spider mite (Tetranychus urticae)", "test": "Tetranychus test (resistant), degree of destruction of spider mites on bean plants", "conditions": "48 h, after 2 days; for mortality at 0.0001 %: active compound concentration 0.0001%; for mortality at 0.001 %: active compound concentration 0.001%", "description": "(§3) Solvent: 3 parts by weight of dimethylformamide\nas §2\nTo produce a suitable preparation of active compound, 1 part by weight of the active compound was mixed with the stated amount of solvent and the stated amount of emulsifier and the concentrate was diluted with water to the desired concentration.\nBean plants (Phaseolus vulgaris) which were heavily infested with the two-spotted spider mite (Tetranychus urticae) in all stages of development were sprayed with the preparation of the active compound until dripping wet.\nAfter the specified periods of time, the degree of destruction was determined as a percentage: 100% meant that all of the spider mites were killed whereas 0% meant that none of the spider mites were killed."}, "[2]": {"tested_on": "mustard beetle larvae (Phaedon cochleariae)", "test": "Phaedon larvae test, degree of destruction on cabbage leaves", "conditions": "72 h, after 3 days; for mortality at 0.001 %: active compound concentration 0.001%; for mortality at 0.01 %: active compound concentration 0.01%", "description": "as §3\nEmulsifier: 1 part by weight of alkylarly polyglycol ether\nTo produce a suitable preparation of active compound, 1 part by weight of the active compound was mixed with the stated amount of solvent containing the stated amount of emulsifier and the concentrate was diluted with water to the desired concentration.\nCabbage leaves (Brassica oleracea) were sprayed with the preparation of the active compound until dripping wet and were then infested with mustard beetle larvae (Phaedon cochleariae).\nAfter the specified periods of time, the degree of destruction was determined in %: 100% meant that all of the beetle larvae had been killed whereas 0% meant that none of the beetle larvae had been killed."}, "[3]": {"tested_on": "Ceratitis capitata (eggs)", "test": "Development-inhibiting action, Ceratitis capitata (eggs)", "conditions": "concentration 10 ppm in synthetic feed, eggs until flies slipped", "source_text": "as §1\nTest insect: Ceratitis capitata (eggs), 20 specimens\nFeed: Synthetic feed (carrot powder with yeast powder)\nSolvent: 20 parts by weight of acetone\nEmulsifier: 5 parts by weight of alkylaryl polyglycol ether\nTo produce a suitable preparation of active compound, 4 parts by weight of active compound were mixed with the stated amount of solvent, emulsifier and sufficient water to produce a 1% strength mixture which was diluted with water to the desired concentration.\nThe eggs of the test insects were placed on a dish with synthetic feed, into which the selected concentration of the active compound mixture was incorporated so that the stated amount of active compound in ppm (parts per million) was obtained. The development was observed until the flies slipped.\nAs a control, synthetic feed mixed only with solvent and emulsifier of the stated concentration was presented."}}, "data": [{"molecule": "O=[N+]([O-])c1cc([N+](=O)[O-])c(Nc2c(Cl)cccc2Cl)c(C(F)(F)F)c1", "note": "[A, reference compound]", "values": [{"measurement": "inhibition at 10 ppm", "setting": "Laphygma exempta (eggs)", "result": 20, "unit": "%"}, {"measurement": "mortality at 0.0001 %", "setting": "[1]", "result": 0, "unit": "%"}, {"measurement": "mortality at 0.001 %", "setting": "[1]", "result": 98, "unit": "%"}]}, {"molecule": "O=[N+]([O-])c1cc([N+](=O)[O-])c(Nc2cc(Cl)ccc2Cl)c(C(F)(F)F)c1", "note": "[B, reference compound]", "values": [{"measurement": "mortality at 0.001 %", "setting": "[2]", "result": 0, "unit": "%"}, {"measurement": "mortality at 0.01 %", "setting": "[2]", "result": 100, "unit": "%"}]}, {"molecule": "O=[N+]([O-])c1cc([N+](=O)[O-])c(Nc2ccc(OC(F)(F)F)cc2)c(C(F)(F)F)c1", "note": "[Compound 1, 2-(4-trifluoromethoxy-anilino)-3,5-dinitro-benzotrifluoride]", "values": [{"measurement": "inhibition at 10 ppm", "setting": "[3]", "result": 100, "unit": "%"}, {"measurement": "mortality at 0.0001 %", "setting": "[1]", "result": 70, "unit": "%"}, {"measurement": "mortality at 0.001 %", "setting": "[1]", "result": 100, "unit": "%"}]}, {"molecule": "O=[N+]([O-])c1cc([N+](=O)[O-])c(Nc2ccc3c(c2)C(F)(F)OC(F)(F)O3)c(C(F)(F)F)c1", "note": "[Compound 2]", "values": [{"measurement": "mortality at 0.0001 %", "setting": "[1]", "result": 100, "unit": "%"}, {"measurement": "mortality at 0.001 %", "setting": "[1]", "result": 100, "unit": "%"}]}, {"molecule": "O=[N+]([O-])c1cc([N+](=O)[O-])c(Nc2ccc(SC(F)(F)F)cc2)c(C(F)(F)F)c1", "note": "[Compound 4]", "values": [{"measurement": "mortality at 0.001 %", "setting": "[2]", "result": 50, "unit": "%"}, {"measurement": "mortality at 0.01 %", "setting": "[2]", "result": 100, "unit": "%"}, {"measurement": "mortality at 0.0001 %", "setting": "[1]", "result": 99, "unit": "%"}, {"measurement": "mortality at 0.001 %", "setting": "[1]", "result": 100, "unit": "%"}]}, {"molecule": "O=[N+]([O-])c1cc([N+](=O)[O-])c(Nc2ccc(S(=O)(=O)C(F)(F)F)cc2Cl)c(C(F)(F)F)c1", "note": "[Compound 7]", "values": [{"measurement": "inhibition at 10 ppm", "setting": "[3]", "result": 100, "unit": "%"}]}, {"molecule": "O=[N+]([O-])c1cc([N+](=O)[O-])c(Nc2c(Cl)cc(S(=O)(=O)C(F)(F)F)cc2Cl)c(C(F)(F)F)c1", "note": "[Compound 8]", "values": [{"measurement": "inhibition at 10 ppm", "setting": "[3]", "result": 100, "unit": "%"}]}, {"molecule": "O=[N+]([O-])c1cc([N+](=O)[O-])c(Nc2ccc(OC(F)(F)F)c(Cl)c2)c(C(F)(F)F)c1", "note": "[Compound 9]", "values": [{"measurement": "inhibition at 10 ppm", "setting": "[3]", "result": 100, "unit": "%"}, {"measurement": "inhibition at 10 ppm", "setting": "Laphygma exempta (eggs)", "result": 100, "unit": "%"}, {"measurement": "mortality at 0.0001 %", "setting": "[1]", "result": 100, "unit": "%"}, {"measurement": "mortality at 0.001 %", "setting": "[1]", "result": 100, "unit": "%"}]}, {"molecule": "CSc1ccc(Nc2c([N+](=O)[O-])cc([N+](=O)[O-])cc2C(F)(F)F)c(C(F)(F)F)c1", "note": "[Compound 10]", "values": [{"measurement": "mortality at 0.0001 %", "setting": "[1]", "result": 50, "unit": "%"}, {"measurement": "mortality at 0.001 %", "setting": "[1]", "result": 98, "unit": "%"}]}, {"molecule": "O=[N+]([O-])c1cc([N+](=O)[O-])c(Nc2ccc(OC(F)(F)F)cc2Cl)c(C(F)(F)F)c1", "note": "[Compound 13, 2-(2-chloro-4-trifluoromethoxy-anilino)-3,5-dinitro-benzotrifluoride]", "values": [{"measurement": "inhibition at 10 ppm", "setting": "[3]", "result": 100, "unit": "%"}, {"measurement": "mortality at 0.001 %", "setting": "[2]", "result": 85, "unit": "%"}, {"measurement": "mortality at 0.01 %", "setting": "[2]", "result": 100, "unit": "%"}, {"measurement": "inhibition at 10 ppm", "setting": "Laphygma exempta (eggs)", "result": 100, "unit": "%"}, {"measurement": "mortality at 0.0001 %", "setting": "[1]", "result": 100, "unit": "%"}, {"measurement": "mortality at 0.001 %", "setting": "[1]", "result": 100, "unit": "%"}]}, {"molecule": "O=[N+]([O-])c1cc([N+](=O)[O-])c(Nc2cc(S(=O)(=O)C(F)(F)F)ccc2Cl)c(C(F)(F)F)c1", "note": "[Compound 14]", "values": [{"measurement": "mortality at 0.001 %", "setting": "[2]", "result": 80, "unit": "%"}, {"measurement": "mortality at 0.01 %", "setting": "[2]", "result": 100, "unit": "%"}]}, {"molecule": "O=[N+]([O-])c1cc([N+](=O)[O-])c(Nc2ccccc2SC(F)(F)F)c(C(F)(F)F)c1", "note": "[Compound 21]", "values": [{"measurement": "mortality at 0.0001 %", "setting": "[1]", "result": 50, "unit": "%"}, {"measurement": "mortality at 0.001 %", "setting": "[1]", "result": 100, "unit": "%"}]}, {"molecule": "O=[N+]([O-])c1cc([N+](=O)[O-])c(Nc2cc(SC(F)(F)F)ccc2Cl)c(C(F)(F)F)c1", "note": "[Compound 22]", "values": [{"measurement": "mortality at 0.001 %", "setting": "[1]", "result": 100, "unit": "%"}]}, {"molecule": "O=[N+]([O-])c1cc([N+](=O)[O-])c(Nc2cccc(OC(F)(F)F)c2)c(C(F)(F)F)c1", "note": "[Compound 24]", "values": [{"measurement": "mortality at 0.0001 %", "setting": "[1]", "result": 95, "unit": "%"}, {"measurement": "mortality at 0.001 %", "setting": "[1]", "result": 100, "unit": "%"}]}, {"molecule": "O=[N+]([O-])c1cc([N+](=O)[O-])c(Nc2cccc(SC(F)(F)F)c2)c(C(F)(F)F)c1", "note": "[Compound 25]", "values": [{"measurement": "mortality at 0.0001 %", "setting": "[1]", "result": 95, "unit": "%"}, {"measurement": "mortality at 0.001 %", "setting": "[1]", "result": 100, "unit": "%"}]}]}
